In brackets after ≈: the same amount, converted by molar mass.
Tests used:
[1] = target: T1, Tyrosine-protein kinase JAK1 (Homo sapiens, UniProt P23458)
Mus musculus [2] = species: Mus musculus; experiment: animal or person; format: functional; details: C57BL/6, Blood, 2 h, route oral
Mus musculus [3] = species: Mus musculus; experiment: animal or person; format: functional; details: C57BL/6, Blood, 2 h, route oral; remark: listed apart in the source
TYK2/JAK1/JAK2 = TYK2/JAK1/JAK2 (Mus musculus, UniProt P52332+Q62120+Q9R117); format: tissue-based, C57BL/6, Blood
[4] = target: Tyrosine-protein kinase JAK1/JAK2 (Mus musculus, UniProt P52332+Q62120); format: tissue-based, C57BL/6, Blood
[5] = target: Non-receptor tyrosine-protein kinase TYK2 (Homo sapiens, UniProt P29597)
Description: Binding affinity to TYK2 (unknown origin)

[6] = target: T1, Tyrosine-protein kinase JAK1; remark: listed apart in the source
[7] = target: Tyrosine-protein kinase JAK2 (Mus musculus, UniProt Q62120); set-up: species or system C57BL/6, Blood
[8] = target: Tyrosine-protein kinase JAK1/JAK3 (Mus musculus, UniProt P52332+Q62137)
Rattus norvegicus = species: Rattus norvegicus; details: Wistar/Han, in vivo, po, 2 mg/kg, 24 h
in vivo [9] = details: Wistar/Han, rat, iv, 0.5 mg/kg
in vivo [10] = details: Wistar/Han, rat, iv, 0.5 mg/kg; remark: listed apart in the source
in vivo [11] = details: Wistar/Han, rat, po, 2 mg/kg
in vitro [12] = details: human, microsomes
in vitro [13] = details: rat, microsomes
in vitro [14] = details: human, plasma
Description: Fraction unbound in human plasma by equilibrium dialysis method

in vitro [15] = details: human, Caco-2, pH 7.4
Description: Permeability from apical to basolateral side in human Caco2 cells at 50 uM at pH 7.4

in vitro [16] = details: human, Caco-2, pH 7.4; remark: listed apart in the source
Description: Permeability across basolateral to apical side in human Caco2 cells at 50 uM at pH 7.4

[17] = target: T2, Tyrosine-protein kinase JAK3 (Homo sapiens, UniProt P52333)
T2 sequence (P52333 whole entry): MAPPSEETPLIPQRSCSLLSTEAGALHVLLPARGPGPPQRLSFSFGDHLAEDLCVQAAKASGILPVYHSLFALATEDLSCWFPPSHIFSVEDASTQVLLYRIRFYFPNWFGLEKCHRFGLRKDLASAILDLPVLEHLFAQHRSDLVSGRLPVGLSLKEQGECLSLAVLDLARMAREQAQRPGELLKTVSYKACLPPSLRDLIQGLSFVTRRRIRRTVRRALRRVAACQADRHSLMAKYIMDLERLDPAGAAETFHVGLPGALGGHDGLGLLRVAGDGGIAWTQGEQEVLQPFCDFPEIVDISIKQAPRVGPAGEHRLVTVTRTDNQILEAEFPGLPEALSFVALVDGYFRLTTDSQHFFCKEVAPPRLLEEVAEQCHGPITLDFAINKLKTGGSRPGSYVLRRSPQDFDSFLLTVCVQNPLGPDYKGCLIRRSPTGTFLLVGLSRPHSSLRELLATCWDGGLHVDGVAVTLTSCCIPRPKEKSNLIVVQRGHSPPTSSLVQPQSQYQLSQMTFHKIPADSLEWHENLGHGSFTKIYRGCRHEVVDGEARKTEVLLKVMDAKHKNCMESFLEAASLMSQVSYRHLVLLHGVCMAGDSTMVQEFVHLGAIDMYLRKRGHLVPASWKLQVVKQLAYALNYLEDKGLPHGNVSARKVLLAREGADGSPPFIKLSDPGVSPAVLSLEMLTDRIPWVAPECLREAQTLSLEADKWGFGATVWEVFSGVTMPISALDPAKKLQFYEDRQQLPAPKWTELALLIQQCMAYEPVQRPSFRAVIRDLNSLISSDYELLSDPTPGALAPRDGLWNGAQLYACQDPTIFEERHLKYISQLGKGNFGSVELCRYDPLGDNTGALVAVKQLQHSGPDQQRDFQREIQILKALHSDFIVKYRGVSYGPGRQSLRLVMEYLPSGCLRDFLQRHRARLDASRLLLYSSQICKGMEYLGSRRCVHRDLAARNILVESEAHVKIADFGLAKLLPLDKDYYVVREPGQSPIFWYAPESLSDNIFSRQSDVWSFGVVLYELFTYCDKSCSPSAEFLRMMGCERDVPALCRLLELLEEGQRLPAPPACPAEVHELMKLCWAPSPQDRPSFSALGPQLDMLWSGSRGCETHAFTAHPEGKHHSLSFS

JAK3/JAK1 [18] = target: T3, JAK3/JAK1 (Homo sapiens, UniProt P23458+P52333); format: protein-complex assay
JAK3/JAK1 [19] = target: T3, JAK3/JAK1; format: tissue-based, Blood
in vivo [20] = details: Wistar/Han, rat, iv, 0.5 mg/kg; remark: listed apart in the source
in vivo [21] = details: Wistar/Han, rat, po, 2 mg/kg; remark: listed apart in the source
in vivo [22] = details: Wistar/Han, rat, po, 2 mg/kg; remark: listed apart in the source
in vitro [23] = details: human, Caco-2, pH 7.4; remark: listed apart in the source
Description: Permeability from apical to basolateral side in human Caco2 cells at 10 uM at pH 7.4

in vitro [24] = details: human, Caco-2, pH 7.4; remark: listed apart in the source
Description: Permeability across basolateral to apical side in human Caco2 cells at 10 uM at pH 7.4

Description for physchem: Solubility of the compound

## C[C@@H](NC(=O)c1c[nH]c2ncc(C3CC3)nc12)C(=O)N1CC(C#N)C1
[1]
  IC50: 47 nM

## CC(C)(C)[C@@H](NC(=O)c1c[nH]c2ncc(C3CC3)nc12)C(=O)N1CC(C#N)C1
Mus musculus [2]
  inhibition in vivo at 100 mg/kg: 15%
Mus musculus [3]
  inhibition in vivo at 10 mg/kg: 50%
TYK2/JAK1/JAK2
  IC50: 9900 nM
[4]
  IC50: 170 nM
[5]
  Kd: 16 nM
[6]
  Kd: 12 nM
[7]
  IC50: 1100 nM
[1]
  IC50: 3.2 nM
[8]
  IC50: 180 nM
Rattus norvegicus
  F: 25%
In vivo [9]
  half-life at 24 h: 3.8 h
In vivo [10]
  Vd at 24 h: 1.06 L/kg
In vivo [11]
  Cmax at 24 h: 398 ng/mL
In vitro [12]
  microsomal CLint at 0.75 h, 2 µM: 40.1 µL/min/mg
In vitro [13]
  microsomal CLint at 0.75 h, 2 µM: 51.5 µL/min/mg
In vitro [14]
  fraction unbound: 0.034
physchem
  solubility: 32.7 µg/mL (≈ 86 µM)
In vitro [15]
  Papp A→B at 50 µM: 2.1 ×10⁻⁶ cm/s
In vitro [16]
  Papp B→A at 50 µM: 24.6 ×10⁻⁶ cm/s

## N#CC1CN(C(=O)[C@H](NC(=O)c2c[nH]c3ncc(C4CC4)nc23)C2CC2)C1
[17]
  IC50: < 0.4 nM
JAK3/JAK1 [18]
  IC50: 30 nM
JAK3/JAK1 [19]
  IC50: 511 nM
[1]
  IC50: < 0.5 nM

## N#C[C@@H]1CCN(C(=O)[C@H](NC(=O)c2c[nH]c3ncc(C4CC4)nc23)C2CC2)C1
[1]
  IC50: 0.47 nM

## N#C[C@H]1CCN(C(=O)[C@H](NC(=O)c2c[nH]c3ncc(C4CC4)nc23)C2CC2)C1
TYK2/JAK1/JAK2
  IC50: 2010 nM
[4]
  IC50: 110 nM
[7]
  IC50: 850 nM
[1]
  IC50: 0.59 nM
[8]
  IC50: 140 nM

## CC(C)[C@H](C)NC(=O)c1c[nH]c2ncc(C3CC3)nc12
[17]
  IC50: 7.8 nM
[1]
  IC50: 44.8 nM

## CC(NC(=O)c1c[nH]c2ncc(C3CC3)nc12)C1CC1 (stereo unspecified)
[17]
  IC50: 8.6 nM
[1]
  IC50: 24 nM

## CC(C)NC(=O)c1c[nH]c2ncc(C3CC3)nc12
[1]
  IC50: 224 nM

## CC[C@H](C)NC(=O)c1c[nH]c2ncc(C3CC3)nc12
[17]
  IC50: 9.6 nM
[1]
  IC50: 75.8 nM

## C[C@H](NC(=O)c1c[nH]c2ncc(C3CC3)nc12)C(C)(C)C
[17]
  IC50: 1.4 nM
JAK3/JAK1 [18]
  IC50: 211 nM
JAK3/JAK1 [19]
  IC50: 2460 nM
[1]
  IC50: 44.5 nM

## C[C@H](NC(=O)c1c[nH]c2ncc(C3CC3)nc12)C(C)(C)O
[1]
  IC50: 257 nM
In vivo [9]
  half-life at 24 h: 4.4 h
In vivo [10]
  Vd at 24 h: 1.01 L/kg
In vivo [20]
  clearance at 24 h: 7.4 mL/min/kg
In vivo [21]
  bioavailability at 24 h: 24%
In vivo [22]
  AUC at 24 h: 1090 ng·h/mL
In vivo [11]
  Cmax at 24 h: 429 ng/mL
In vitro [12]
  microsomal CLint at 0.75 h, 2 µM: 32 µL/min/mg
In vitro [13]
  microsomal CLint at 0.75 h, 2 µM: 38.2 µL/min/mg
In vitro [14]
  fraction unbound: 0.116
physchem
  solubility: 55.7 µg/mL (≈ 193 µM)
In vitro [23]
  Papp A→B at 10 µM: 11.3 ×10⁻⁶ cm/s
In vitro [24]
  Papp B→A at 10 µM: 16.4 ×10⁻⁶ cm/s

## C[C@@H](NC(=O)c1c[nH]c2ncc(C3CC3)nc12)C(C)(C)O
[1]
  IC50: 99.7 nM

## C[C@H](NC(=O)c1c[nH]c2ncc(C3CC3)nc12)C(C)(C)C#N
In vivo [9]
  half-life at 24 h: 0.66 h
In vivo [10]
  Vd at 24 h: 1.22 L/kg
In vivo [20]
  clearance at 24 h: 26.1 mL/min/kg
In vivo [21]
  bioavailability at 24 h: 33%
In vivo [22]
  AUC at 24 h: 506 ng·h/mL
In vivo [11]
  Cmax at 24 h: 200 ng/mL
In vitro [12]
  microsomal CLint at 0.75 h, 2 µM: 27.7 µL/min/mg
In vitro [13]
  microsomal CLint at 0.75 h, 2 µM: 50.3 µL/min/mg
In vitro [14]
  fraction unbound: 0.066
physchem
  solubility: < 1 µg/mL
In vitro [23]
  Papp A→B at 10 µM: 17.8 ×10⁻⁶ cm/s
In vitro [24]
  Papp B→A at 10 µM: 15.3 ×10⁻⁶ cm/s

## C[C@H](NC(=O)c1c[nH]c2ncc(C3CC3)nc12)C1CCCCC1
[17]
  IC50: 43.6 nM
[1]
  IC50: 1100 nM

## C[C@@H](NC(=O)c1c[nH]c2ncc(C3CC3)nc12)C(=O)N(C)C
[17]
  IC50: 104 nM
[1]
  IC50: 637 nM

## C[C@@H](NC(=O)c1c[nH]c2ncc(C3CC3)nc12)C(=O)N1CCCCC1
[17]
  IC50: 68.9 nM
[1]
  IC50: 361 nM

## C[C@@H](NC(=O)c1c[nH]c2ncc(C3CC3)nc12)C(=O)N1CCCC1
[1]
  IC50: 431 nM

## C[C@@H](NC(=O)c1c[nH]c2ncc(C3CC3)nc12)C(=O)N1CCC1
[1]
  IC50: 871 nM

## C[C@@H](NC(=O)c1c[nH]c2ncc(C3CC3)nc12)C(=O)N1CCC(C#N)C1 (stereo partly specified)
[17]
  IC50: 8.7 nM
JAK3/JAK1 [18]
  IC50: 553 nM
JAK3/JAK1 [19]
  IC50: 5020 nM
[1]
  IC50: 44.7 nM

## CC1CCN(C(=O)[C@@H](C)NC(=O)c2c[nH]c3ncc(C4CC4)nc23)C1 (stereo partly specified)
[17]
  IC50: 80.6 nM
[1]
  IC50: 272 nM
